Experiments:
[1] = test system: generalized trembling caused by dl-5-hydroxytryptophane; experiment: Test A: potentiation in mice of generalized trembling caused by dl-5-hydroxytryptophane; type: in vivo; conditions: Mus musculus, po, mice, potentiation of trembling by dl-5-hydroxytryptophane 200 mg/kg interperitoneal, read-out: Test A ED 50
Description: Test A: Potentiation in mice of generalized trembling caused by an interperitoneal injection (200 mg/kg) of dl-5-hydroxytryptophane, following the protocol described by C. GOURET and G. RAYNAUD in J. Pharmacol. (Paris), (1974), 5, 231.

[2] = test system: ptosis observed one hour after reserpine; experiment: Test B: antagonism of reserpine-induced ptosis in mice; type: in vivo; conditions: Mus musculus, 1 h, po, antagonism of ptosis one hour after reserpine 2 mg/kg intravenous, read-out: Test B ED 50
Description: Test B: Antagonism with respect to the ptosis observed one hour after an intravenous injection (2 mg/kg) of reserpine given to mice, following the protocol described by C.

SMILES	ED50 [1]	ED50 [2]
CC(C)CCOc1ccc(N2CC(CN)OC2=O)cc1 (stereo not drawn) [compound 174]	3 mg/kg	3.5 mg/kg
CC(C)(C)C(=O)OCC1CN(c2ccc(OCc3cccc([N+](=O)[O-])c3)cc2)C(=O)O1 (stereo not drawn) [compound 40]	6.2 mg/kg	1.5 mg/kg
Cc1cccc(N2CC(CO)OC2=O)c1 (stereo not drawn) [TOLOXATONE, reference compound]	60 mg/kg	50 mg/kg
O=C(OCC1CN(c2ccc(OCc3ccccc3)cc2)C(=O)O1)c1ccccc1 (stereo not drawn) [compound 29]	45 mg/kg	50 mg/kg
CC(C)C(=O)OCC1CN(c2ccc(OCc3ccccc3)cc2)C(=O)O1 (stereo not drawn) [compound 25]	15 mg/kg	25 mg/kg
CCOCC1CN(c2ccc(OCc3cccc(Cl)c3)cc2)C(=O)O1 (stereo not drawn) [compound 155]	9.6 mg/kg	3 mg/kg
CCCCCCCCC(=O)OCC1CN(c2ccc(OCc3ccccc3)cc2)C(=O)O1 (stereo not drawn) [compound 28]	32 mg/kg	20 mg/kg
N#CCCOc1ccc(N2CC(COC(=O)C3CCCCC3)OC2=O)cc1 (stereo not drawn) [compound 8]	2.2 mg/kg	7.2 mg/kg
CC(C)COCC1CN(c2ccc(OCc3cccc([N+](=O)[O-])c3)cc2)C(=O)O1 (stereo not drawn) [compound 157]	4.7 mg/kg	6.2 mg/kg
CCCCOc1ccc(N2CC(CNC)OC2=O)cc1 (stereo not drawn) [compound 74]	4 mg/kg	6.2 mg/kg
CC(C)C(=O)OCC1CN(c2ccc(OCCC#N)cc2)C(=O)O1 (stereo not drawn) [compound 5]	4.7 mg/kg	9.5 mg/kg
CCOCC1CN(c2ccc(OCc3cccc(C#N)c3)cc2)C(=O)O1 (stereo not drawn) [compound 167]	3.7 mg/kg	3 mg/kg
CCCCOc1ccc(N2CC(CN)OC2=O)cc1 (stereo not drawn) [compound 170]	12.5 mg/kg	16 mg/kg
CC(=O)OCC1CN(c2ccc(OCc3cccc(Cl)c3)cc2)C(=O)O1 (stereo not drawn) [compound 30]	4.2 mg/kg	4.5 mg/kg
CCOCC1CN(c2ccc(OCC3CCCC3)cc2)C(=O)O1 (stereo not drawn) [compound 146]	5 mg/kg	12.5 mg/kg
CCCOc1ccc(N2CC(CO)OC2=S)cc1 (stereo not drawn) [compound 88]	12.5 mg/kg	33 mg/kg
COCC1CN(c2ccc(OCc3ccccc3)cc2)C(=O)O1 (stereo not drawn) [compound 57]	7.8 mg/kg	9 mg/kg
C#CCOCC1CN(c2ccc(OCc3cccc([N+](=O)[O-])c3)cc2)C(=O)O1 (stereo not drawn) [compound 72]	0.8 mg/kg	1 mg/kg
COCC1CN(c2ccc(OCc3cccc(F)c3)cc2)C(=O)O1 (stereo not drawn) [compound 67]	4.4 mg/kg	5.6 mg/kg
CC(=O)OCC1CN(c2ccc(OCc3cccc(F)c3)cc2)C(=O)O1 (stereo not drawn) [compound 130]	6.2 mg/kg	9.6 mg/kg
CCCCCCCCC(=O)OCC1CN(c2ccc(OCc3cccc(F)c3)cc2)C(=O)O1 (stereo not drawn) [compound 131]	12 mg/kg	31 mg/kg
OCC1CN(c2ccc(OCC3CCCCC3)cc2)C(=S)O1 (stereo not drawn) [compound 90]	3 mg/kg	8 mg/kg
CCCOCC1CN(c2ccc(OCc3cccc(Cl)c3)cc2)C(=O)O1 (stereo not drawn) [compound 153]	3.8 mg/kg	4 mg/kg
COCC1CN(c2ccc(OCc3cc(Cl)cc([N+](=O)[O-])c3)cc2)C(=O)O1 (stereo not drawn) [compound 156]	0.47 mg/kg	0.3 mg/kg
COCC1CN(c2ccc(/C=C\c3cccc([N+](=O)[O-])c3)cc2)C(=O)O1 (stereo not drawn) [compound 194]	6.4 mg/kg	5.8 mg/kg
COCC1CN(c2ccc(/C=C\c3ccccc3)cc2)C(=O)O1 (stereo not drawn) [compound 193]	19 mg/kg	30 mg/kg
NCC1CN(c2ccc(OCC3CCCC3)cc2)C(=O)O1 (stereo not drawn) [compound 76]	2.1 mg/kg	6.2 mg/kg
O=[N+]([O-])c1cc(Cl)cc(COc2ccc(N3CC(CO)OC3=S)cc2)c1 (stereo not drawn) [compound 113]	3.2 mg/kg	3.5 mg/kg
O=C(OCC1CN(c2ccc(OCC3CCCC3)cc2)C(=O)O1)c1ccccc1 (stereo not drawn) [compound 20]	8.8 mg/kg	3.7 mg/kg
COCC1CN(c2ccc(OCC(C)=O)cc2)C(=O)O1 (stereo not drawn) [compound 151]	5.2 mg/kg	5 mg/kg
